The values that follow come from US20100210682A1, “Repeated Dosing of TRPV1 Antagonists” (ABBOTT LABORATORIES, priority 2009, published 2010).

A short description of data set [1]: Plasma levels in osteoarthritic rats after acute and repeated dosing. Type of data set: in vivo, rat. Conditions: derived from modeling of PK/PD data from acute and chronic dosing studies. The procedure:
(§1) In the osteoarthritic pain model, animals were dosed twice-daily for 12 days using a dose that was non-efficacious following a single administration (e.g. 3 μmol/kg p.o. for Compound A). The animals were tested 1 hour after acute dosing (p.o.) and on day 12, 1 hour after oral dosing with either vehicle or the test compound.

For data set [2], the system named is post-operative thermal hyperalgesia. Briefly: Post-operative pain model in rats (skin incision), thermal hyperalgesia. In kind it is in vivo. The conditions noted are these: po; rat, p.o., acute dosing, 24 h post-injury; read-out: ED50, reversal of thermal hyperalgesia. The procedure: The response to acute thermal stimulation was determined using a commercially available paw thermal stimulator (UARDG, University of California, San Diego, Calif.). Rats were placed individually in Plexiglass cubicles mounted on a glass surface maintained at 30° C., and allowed a 30 min habituation period. A thermal stimulus, in the form of radiant heat emitted from a focused projection bulb, was then applied to the plantar surface of each hind paw. In each test session, each rat was tested in three sequential trials at approximately 5 min intervals. Paw withdrawal latencies (PWLs) were calculated as the mean of the two shortest latencies. An assay cut-off was set at 20.5 s.
As described by Brennan et al. [Brennan T J, Vandermeulen E P, Gebhart G F. Characterization of a rat model of incisional pain. Pain 1996; 64:493-501], a 1 cm longitudinal incision was made through the skin and fascia of the plantar aspect of the foot, starting 0.5 cm from the proximal edge of the heel and extending toward the toes. The plantaris muscle was elevated and incised longitudinally with origin and insertion of the muscle remaining intact. The skin was then closed with two 5-0 nylon mattress sutures. After surgery, the animals were allowed to recover and housed individually with soft bedding. Animals were tested for mechanical allodynia using von Frey hairs and for thermal hyperalgesia as described above. […]

A further data set concerns the target TRPV1 receptor (Homo sapiens, UniProt Q8NER1). In words: Block of TRPV1 receptor activation by capsaicin in vitro. In kind it is biochemical.
Data set [3] deals with inflammatory thermal hyperalgesia induced by intraplantar administration of CFA. In words: Inflammatory pain model in rats (CFA, thermal hyperalgesia). In kind it is in vivo. The conditions noted are these: po; rat, p.o., acute dosing; read-out: ED50, reversal of inflammatory thermal hyperalgesia induced by CFA. As for the experimental part: The response to acute thermal stimulation was determined using a commercially available paw thermal stimulator (UARDG, University of California, San Diego, Calif.). Rats were placed individually in Plexiglass cubicles mounted on a glass surface maintained at 30° C., and allowed a 30 min habituation period. A thermal stimulus, in the form of radiant heat emitted from a focused projection bulb, was then applied to the plantar surface of each hind paw. In each test session, each rat was tested in three sequential trials at approximately 5 min intervals. Paw withdrawal latencies (PWLs) were calculated as the mean of the two shortest latencies. An assay cut-off was set at 20.5 s. Unilateral inflammation was induced by injecting 150 μL of a 50% solution of complete Freund's adjuvant (CFA) (Sigma, St. Louis, Mo.) in physiological saline into the plantar surface of the right hind paw of the rat. The hyperalgesia to thermal stimulation was determined 2 days following CFA injection using the same apparatus as described above for the noxious acute thermal assay. Compound A was dissolved in 100% polyethylene glycol (PEG 400) for oral administration in a 2 mL/kg injection volume. Compounds B, C, and D were dissolved in 10% ethanol, 20% Tween 80 and 70% polyethylene glycol-400 for oral administration in a 2 mL/kg injection volume. […]

Data set [4] has as its system MIA-induced osteoarthritic rats. In words: Osteoarthritic pain model in rats (MIA), hind limb grip force. In kind it is in vivo, rat. Conditions: for ED50: po, p.o., acute dosing. As for the experimental part: Unilateral knee joint osteoarthritis was induced in the rats by a single intraarticular (i.a.) injection of sodium monoiodoacetate (MIA) (Sigma, St. Louis, Mo.) (3 mg in 0.05 mL sterile isotonic saline) into the joint cavity using a 26 G needle under light (2-4%) halothane (Halocarbon Laboratories, River Edge, N.J.) anesthesia [Bove S E, Calcaterra S L, Brooker R M, Huber C M, Guzman R E, Juneau P L, et al. Weight bearing as a measure of disease progression and efficacy of anti-inflammatory compounds in a model of monosodium iodoacetate-induced osteoarthritis. Osteoarthritis Cartilage 2003; 11:821-30]. Following injection, the animals were allowed to recover from the effects of anesthesia (usually 5-10 min) before returning them to their home cages.
MIA-induced nociception can be assessed by measuring differences in weight bearing (WBD) or decrease in grip force (GF) several days to weeks following MIA injection [Bove S E, Calcaterra S L, Brooker R M, Huber C M, Guzman R E, Juneau P L, et al. Weight bearing as a measure of disease progression and efficacy of anti-inflammatory compounds in a model of monosodium iodoacetate-induced osteoarthritis. Osteoarthritis Cartilage 2003; 11:821-30; Fernihough J, Gentry C, Malcangio M, Fox A, Rediske J, Pellas T, et al. Pain related behaviour in two models of osteoarthritis in the rat knee. Pain 2004; 112:83-93].
In addition to weight-bearing differences, grip strength was also assessed in osteoarthritic rats approximately 21 days after MIA injection. Measurements of peak hind limb grip force were conducted by recording the maximum compressive force exerted on the hind limb strain gauge setup, in a commercially available grip force measurement system (Columbus Instruments, Columbus, Ohio). During testing, each rat was gently restrained by grasping around its rib cage and then allowed to grasp the wire mesh frame (10-12 cm^2) attached to the strain gauge. The experimenter then moved the animal in a rostral-to-caudal direction until the grip was broken. Each rat was sequentially tested twice at an approximately 2 min interval to obtain a raw mean grip force […]. These raw mean grip force data were in turn converted to a maximum hind limb compressive force (CFmax) (gram force)/kg body weight for each animal. A group of age-matched naïve animals was added to each experiment and the data obtained from the different dose groups for the compound being tested were compared to the naïve group.
Compound A was dissolved in 100% polyethylene glycol (PEG 400) for oral administration in a 2 mL/kg injection volume. Compounds B, C, and D were dissolved in 10% ethanol, 20% Tween 80 and 70% polyethylene glycol-400 for oral administration in a 2 mL/kg injection volume. All compounds were dosed orally (p.o.) 60 minutes before behavioral testing.
as §1
The analgesic responses were shown as % effect relative to the healthy, untreated rats (naïve group).

Broadly, the EC50 is the concentration at which the effect is half-maximal.

Structures are written as SMILES. Converted amounts (≈) assume the structure as drawn. Read-outs that look alike come from different tables or passages of the source. Marks after values point to notes of the source that are not given here.

Sequence of TRPV1 receptor (Q8NER1 whole entry): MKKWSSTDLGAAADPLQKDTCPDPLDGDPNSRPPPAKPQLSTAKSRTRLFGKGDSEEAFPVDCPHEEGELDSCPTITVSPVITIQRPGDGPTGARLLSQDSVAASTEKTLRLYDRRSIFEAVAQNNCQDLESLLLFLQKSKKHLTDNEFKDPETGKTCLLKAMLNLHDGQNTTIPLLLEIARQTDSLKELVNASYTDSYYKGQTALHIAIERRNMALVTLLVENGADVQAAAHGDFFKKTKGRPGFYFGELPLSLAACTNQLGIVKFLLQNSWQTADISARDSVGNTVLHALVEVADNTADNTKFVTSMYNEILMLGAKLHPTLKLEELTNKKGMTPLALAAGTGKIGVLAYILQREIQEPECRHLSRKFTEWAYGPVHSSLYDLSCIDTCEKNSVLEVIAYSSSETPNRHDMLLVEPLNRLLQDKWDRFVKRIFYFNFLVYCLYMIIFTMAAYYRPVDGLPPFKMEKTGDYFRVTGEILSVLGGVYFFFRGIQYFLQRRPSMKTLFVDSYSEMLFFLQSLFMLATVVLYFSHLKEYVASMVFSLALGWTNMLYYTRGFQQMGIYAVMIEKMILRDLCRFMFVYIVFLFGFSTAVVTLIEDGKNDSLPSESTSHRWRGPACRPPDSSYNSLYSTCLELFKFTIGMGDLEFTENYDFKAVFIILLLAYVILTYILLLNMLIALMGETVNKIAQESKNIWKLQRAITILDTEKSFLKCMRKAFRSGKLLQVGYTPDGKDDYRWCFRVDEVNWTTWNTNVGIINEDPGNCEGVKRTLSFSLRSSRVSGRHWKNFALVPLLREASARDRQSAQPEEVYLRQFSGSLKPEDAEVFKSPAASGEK

On to `CC(C)(C)c1ccc2c(c1)CC[C@H]2NC(=O)Nc1cccc2[nH]ncc12` [Compound A, N-[(1R)-5-tert-butyl-2,3-dihydro-1H-inden-1-yl]-N′-1H-indazol-4-ylurea], for which the “Plasma Levels, Chronic” value in data set [1] (3 μmol/kg BID 12 days) is recorded as 17** at 3 μmol/kg ng/mL. A half-maximal effect in data set [1] (Rattus norvegicus, osteoarthritic rats) (EC50) was put at 0.085 µg/mL (≈ 0.244 µM). Further, the ED50 in data set [2] is 40 µmol/kg; in data set [3] it was 10 µmol/kg; in data set [4] (Rattus norvegicus, grip force, MIA-induced osteoarthritic rats, read-out: Acute ED50 (μmol/kg; 95% Cl)), 8 µmol/kg; in data set [4] (480 h, rat, 20 days following MIA injection, read-out: ED50, reversal of decrease in grip force), 10 µmol/kg. The “ability to block TRPV1 receptor activation by capsaicin in vitro” value at TRPV1 receptor is listed as “potent”. The “% Efficacy at Reduced Dose, Chronic (BID, 12 days)” value in data set [4] (grip force, 3 μmol/kg p.o. BID 12 days, relative to naïve group) is listed as 62%. For the same molecule, the “% Efficacy at Reduced Dose, Acute” value in data set [4] (grip force, 3 μmol/kg p.o., 1 hour after acute dosing, relative to naïve group) came to 20%. In addition, the “analgesic effects following repeated dosing vs acute dosing” value in data set [4] (grip force, BID 12 days, reduced dose) is reported as “significantly increased”.
